The target of assay [1] is Neuronal acetylcholine receptor subunit alpha-7 (Rattus norvegicus, UniProt Q05941). Kind of assay: Displacement of [125I]alpha-BTX from alpha-7 nAChR in rat hippocampus membrane. Format: cell membranes.
The next assay has as its target Cytochrome P450 2D6 (Homo sapiens, UniProt P10635). The experiment in a line: Inhibition of CYP2D6. Format: ADME.
Assay [2] concerns the target Neuronal acetylcholine receptor subunit alpha-7 (Homo sapiens) (UniProt P36544). Kind of assay: Activity at alpha-7 nAChR assessed as stimulation of relative inward current in cultured hippocampal neurons relative to choline. It is filed as functional, tissue-based. Conditions: Hippocampus, filed as agonist.

In ChEMBL document CHEMBL1138068 (J Med Chem, 2006) one finds Ki, IC50 and Activity data, which are given here for 6 molecules.

Sequence of Cytochrome P450 2D6 (P10635 whole entry): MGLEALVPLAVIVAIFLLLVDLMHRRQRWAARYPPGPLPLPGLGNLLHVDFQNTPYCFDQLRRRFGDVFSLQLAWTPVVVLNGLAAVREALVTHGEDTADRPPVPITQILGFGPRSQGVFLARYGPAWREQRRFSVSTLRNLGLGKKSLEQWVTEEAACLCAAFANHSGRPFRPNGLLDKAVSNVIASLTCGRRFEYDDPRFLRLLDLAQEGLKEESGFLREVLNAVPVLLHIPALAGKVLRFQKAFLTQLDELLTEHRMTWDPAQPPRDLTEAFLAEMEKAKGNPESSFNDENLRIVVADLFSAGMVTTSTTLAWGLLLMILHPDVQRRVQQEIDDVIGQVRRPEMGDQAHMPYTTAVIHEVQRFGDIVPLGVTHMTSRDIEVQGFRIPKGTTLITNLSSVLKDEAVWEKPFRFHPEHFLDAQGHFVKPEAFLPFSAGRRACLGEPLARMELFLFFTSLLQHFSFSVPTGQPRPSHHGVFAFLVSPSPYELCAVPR
Sequence of Neuronal acetylcholine receptor subunit alpha-7 (Q05941 whole entry): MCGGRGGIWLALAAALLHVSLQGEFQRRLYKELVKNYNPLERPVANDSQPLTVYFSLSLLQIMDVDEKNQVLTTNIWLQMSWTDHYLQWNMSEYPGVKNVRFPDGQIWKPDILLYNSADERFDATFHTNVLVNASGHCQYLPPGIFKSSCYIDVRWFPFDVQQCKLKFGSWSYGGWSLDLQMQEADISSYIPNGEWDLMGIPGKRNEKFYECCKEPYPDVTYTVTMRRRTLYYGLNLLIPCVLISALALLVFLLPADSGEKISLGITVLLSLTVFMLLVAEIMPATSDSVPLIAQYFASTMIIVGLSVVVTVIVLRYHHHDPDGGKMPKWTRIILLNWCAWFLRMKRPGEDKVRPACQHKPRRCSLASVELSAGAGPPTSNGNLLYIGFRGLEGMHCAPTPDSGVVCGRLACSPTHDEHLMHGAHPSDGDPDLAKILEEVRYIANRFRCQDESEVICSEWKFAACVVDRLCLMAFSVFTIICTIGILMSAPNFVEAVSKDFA
Sequence of Neuronal acetylcholine receptor subunit alpha-7 (Homo sapiens) (P36544 whole entry): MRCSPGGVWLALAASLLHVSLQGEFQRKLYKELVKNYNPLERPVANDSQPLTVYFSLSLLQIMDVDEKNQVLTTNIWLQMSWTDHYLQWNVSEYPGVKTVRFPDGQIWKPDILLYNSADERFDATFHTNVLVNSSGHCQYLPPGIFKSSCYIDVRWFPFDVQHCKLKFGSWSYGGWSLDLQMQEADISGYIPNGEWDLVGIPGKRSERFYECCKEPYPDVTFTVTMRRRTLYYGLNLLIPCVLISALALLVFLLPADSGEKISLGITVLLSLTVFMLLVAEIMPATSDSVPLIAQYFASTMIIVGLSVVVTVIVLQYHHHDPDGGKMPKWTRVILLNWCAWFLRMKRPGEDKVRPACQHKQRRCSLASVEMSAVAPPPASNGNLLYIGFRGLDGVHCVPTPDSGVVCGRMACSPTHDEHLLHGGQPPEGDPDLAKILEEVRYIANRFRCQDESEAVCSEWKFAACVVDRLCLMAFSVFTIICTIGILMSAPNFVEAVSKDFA

Turning to `Cc1oc2ccc(N3C[C@]4(CN5CCC4CC5)OC3=O)cc2c1C`, the affinity in assay [1] corresponds to a Ki of 4 nM. The IC50 – broadly, the midpoint of a concentration-inhibition curve – against Cytochrome P450 2D6 was greater than 30000 nM.

As to `O=C1O[C@]2(CN3CCC2CC3)CN1c1ccc2occc2c1`, in assay [1], the inhibition constant Ki (as a rule, the dissociation constant of the complex between target and ligand, obtained from inhibition or displacement) was determined as 19 nM. In addition, the 50% inhibitory concentration (IC50) on Cytochrome P450 2D6 is greater than 30000 nM. In assay [2], the Activity result was “Agonist”.

In the case of `O=C1O[C@@]2(CN3CCC2CC3)CN1c1ccc(Br)s1`, the Ki in assay [1] worked out at 4 nM. The same molecule yielded an IC50 against Cytochrome P450 2D6 of 9000 nM.

`CCc1cc2cc(N3C[C@@]4(CN5CCC4CC5)OC3=O)ccc2s1` registered a Ki in assay [1] of 135 nM. In addition, the IC50 on Cytochrome P450 2D6 is greater than 30000 nM.

As for `O=C1O[C@]2(CN3CCC2CC3)CN1c1ccc2ccoc2c1`, the Ki in assay [1] is 50 nM.

The molecule `O=C1O[C@]2(CN3CCC2CC3)CN1c1ccc2c(c1)OCCO2` showed an inhibition constant Ki in assay [1] of 175 nM.
